The values below come from PMC8495692 (ACS Omega, 2021).

One experiment deals with human IRAK1 (Homo sapiens, UniProt P51617). The experiment in a line: IRAK1 kinase assay. It counts as biochemical. As to conditions: for inhibition at 10 µM: read-out: % of kinase inhibition (mean), IRAK1, 10 μM compound.
In the next experiment the test system is human IRAK4. The experiment in a line: IRAK4 kinase assay. It counts as biochemical. The following applies: 10 μM compound; ATP 10 μM.
For experiment [1], the system named is cells overexpressing IRAK1. The experiment can be described thus: MTT cytotoxicity on cells overexpressing IRAK1. It is filed as cell-based. The following applies: Homo sapiens, read-out: IC50, toxicity on cells overexpressing IRAK1.
Experiment [2] concerns LPS-stimulated PMA-induced human THP-1 macrophages. The experiment can be described thus: Cytokine production, CBA array beads with flow cytometry. As to conditions: 1 μM, 24 h, compared to control DMSO. It is filed as cell-based.
A further experiment has as its system IRAK4. The following applies: read-out: IC50 against IRAK4; cited from earlier work.
The subject of a further experiment is IRAK1. As to conditions: read-out: IC50 against IRAK1; cited from earlier work.

pIC50: −log10 of the molar value. Marks after values point to notes of the source that are not given here.

human IRAK1, sequence (P51617 whole entry): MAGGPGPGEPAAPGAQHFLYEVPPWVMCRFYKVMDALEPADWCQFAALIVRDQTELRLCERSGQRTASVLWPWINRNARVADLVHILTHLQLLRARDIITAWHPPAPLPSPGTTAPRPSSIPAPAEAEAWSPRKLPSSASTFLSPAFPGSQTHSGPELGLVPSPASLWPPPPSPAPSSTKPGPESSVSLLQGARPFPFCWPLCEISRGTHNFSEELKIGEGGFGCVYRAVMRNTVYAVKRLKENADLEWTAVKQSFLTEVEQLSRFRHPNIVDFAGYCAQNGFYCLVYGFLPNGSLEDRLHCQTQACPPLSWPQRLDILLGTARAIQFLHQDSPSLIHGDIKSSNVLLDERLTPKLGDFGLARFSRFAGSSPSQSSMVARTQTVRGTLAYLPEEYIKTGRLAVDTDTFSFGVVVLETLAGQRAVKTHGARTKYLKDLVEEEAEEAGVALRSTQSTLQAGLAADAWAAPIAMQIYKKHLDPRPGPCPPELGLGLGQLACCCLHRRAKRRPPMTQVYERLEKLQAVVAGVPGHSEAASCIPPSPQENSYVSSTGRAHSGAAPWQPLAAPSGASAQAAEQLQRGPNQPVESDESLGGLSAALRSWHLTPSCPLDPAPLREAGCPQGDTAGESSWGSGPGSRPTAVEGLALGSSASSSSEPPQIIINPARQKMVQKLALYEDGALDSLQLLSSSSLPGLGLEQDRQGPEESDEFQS

Regarding `O=C1C=CC(=O)C=C1` [1,4-benzoquinone], on human IRAK1 (ATP 10 μM), the inhibition (usually how much of the control response was suppressed) at 10 µM is 20%. For the same molecule, the “% of kinase inhibition (mean), IRAK4” value with human IRAK4 was 0%.

Consider `O=C1C=CC(=O)c2ccccc21` [1,4-naphthoquinone], for which the pIC50 (as a rule, −log10 of the IC50, conventionally taken in molar units) against human IRAK1 is 6.04; in experiment [1], greater than 5.00. Besides, the “% of kinase inhibition (mean), IRAK4” value in the experiment on human IRAK4 came out at 10%. In addition, the “IL-8, IL-1β, and IL-10 levels in supernatant” value in experiment [2] (p-value < 0.01) is listed as “most downregulated”. The “levels of most of measured cytokines (IL-1β, TNF-α, IL-10, IL-6, IL-8, IL-12β) in supernatant” value in experiment [2] (p-value < 0.05) is listed as “significant decrease”.

Regarding `C=CC(=O)Nc1cccc(C(=O)Nc2ccc(NC(=O)c3cccc(-c4ccn[nH]4)n3)cc2)c1` [JH-X-119-01], in the experiment on IRAK4, the negative logarithm of the IC50 (pIC50) is less than 5.00.

Take `Cc1cc(O)c2c(c1)C(=O)c1cc(O)cc(O)c1C2=O` [emodin, 1,3,8-trihydroxy-6-methylanthraquinone]: the pIC50 at human IRAK1 was 5.85. For the same molecule, in the experiment with human IRAK4, the “% of kinase inhibition (mean), IRAK4” value is recorded as 9%.

Regarding `Oc1ccc(O)cc1` [hydroquinone], at human IRAK1 (ATP 10 μM), the inhibition at 10 µM was determined as 15%. Moreover, the “% of kinase inhibition (mean), IRAK4” value in the experiment on human IRAK4 is 4%.

With `O=C1C=CC(=O)c2c(O)cccc21` [juglone, 5-hydroxy-1,4-naphthoquinone], the inhibition at 10 µM at human IRAK1 (ATP 10 μM) was found to be 0%. Also, in the experiment on human IRAK4, the “% of kinase inhibition (mean), IRAK4” value was found to be 0%.

On to `CC(C)=CCC1=C(O)C(=O)c2ccccc2C1=O` [lapachol, 2-hydroxy-3-(3-methyl-2-butenyl)-1,4-naphthoquinone], for which the inhibition at 10 µM at human IRAK1 (ATP 10 μM) was 8%. The “% of kinase inhibition (mean), IRAK4” value in the experiment on human IRAK4 is listed as 3%.

On human IRAK1, `CC1=CC(=O)c2ccccc2C1=O` [menadione (Vitamin K3), menadione, reference compound] gave a pIC50 of 4.35. For the same molecule, on human IRAK1 (10 μM compound, ATP 10 μM), the “% of kinase inhibition (mean), IRAK1” value is 28 ^a %. Also, at human IRAK1 (ATP 10 μM), the inhibition at 10 µM was greater than 20%. Further, the “% of kinase inhibition (mean), IRAK4” value with human IRAK4 is 0%.

For the molecule `C1=C/COCc2cc(ccc2OCCN2CCCC2)Nc2nccc(n2)-c2cccc(c2)COC/1` [pacritinib], the pIC50 with IRAK1 is 8.22; in the experiment with IRAK4, 6.75.

As for `CC1=C(C/C=C(\C)CCC[C@H](C)CCC[C@H](C)CCCC(C)C)C(=O)c2ccccc2C1=O` [phylloquinone (Vitamin K1), phylloquinone, reference compound], the inhibition at 10 µM on human IRAK1 (ATP 10 μM) was 14%. Further, the “% of kinase inhibition (mean), IRAK4” value in the experiment with human IRAK4 is listed as 9%.

On human IRAK1, `CC1=CC(=O)c2c(O)cccc2C1=O` [plumbagin, 5-hydroxy-2-methyl-1,4-naphthoquinone] had a pIC50 of 5.20. Also, the “% of kinase inhibition (mean), IRAK4” value in the experiment on human IRAK4 stood at 0%.

`CC(C)=CCC(O)C1=CC(=O)c2c(O)ccc(O)c2C1=O` (stereo not drawn) [shikonin, 5,8-dihydroxy-2-(1-hydroxy-4-methyl-3-pentenyl)-1,4-naphthoquinone] showed a pIC50 against human IRAK1 of 5.34. Also, the “% of kinase inhibition (mean), IRAK4” value in the experiment with human IRAK4 came to 0%.

On to `CC1=CC(=O)C(C(C)C)=CC1=O` [thymoquinone, 2-isopropyl-5-methyl-1,4-benzoquinone], for which the inhibition at 10 µM at human IRAK1 (ATP 10 μM) was 5%. Further, the “% of kinase inhibition (mean), IRAK4” value in the experiment on human IRAK4 was 0%.
